Measured values taken from article PMC9636434, “Discovery of small molecule agonists of the Relaxin Family Peptide Receptor 2” (Communications Biology, 2022).
“And” between values parts separate entries of the source, which are not always exact repeats. Equal entries are not always repeated. “Also recorded” adds a separate entry of the source. Where two headings read alike, the source gives them in different places.

Legend:
human LHCGR = human LHCGR (Homo sapiens, UniProt P22888); experiment: HitHunter cAMP XS+ assay, cAMP Hunter cell line LHCGR; format: cell-based; conditions: for RLU: replicates (1),(2)
Sequence of human LHCGR (P22888 27-699): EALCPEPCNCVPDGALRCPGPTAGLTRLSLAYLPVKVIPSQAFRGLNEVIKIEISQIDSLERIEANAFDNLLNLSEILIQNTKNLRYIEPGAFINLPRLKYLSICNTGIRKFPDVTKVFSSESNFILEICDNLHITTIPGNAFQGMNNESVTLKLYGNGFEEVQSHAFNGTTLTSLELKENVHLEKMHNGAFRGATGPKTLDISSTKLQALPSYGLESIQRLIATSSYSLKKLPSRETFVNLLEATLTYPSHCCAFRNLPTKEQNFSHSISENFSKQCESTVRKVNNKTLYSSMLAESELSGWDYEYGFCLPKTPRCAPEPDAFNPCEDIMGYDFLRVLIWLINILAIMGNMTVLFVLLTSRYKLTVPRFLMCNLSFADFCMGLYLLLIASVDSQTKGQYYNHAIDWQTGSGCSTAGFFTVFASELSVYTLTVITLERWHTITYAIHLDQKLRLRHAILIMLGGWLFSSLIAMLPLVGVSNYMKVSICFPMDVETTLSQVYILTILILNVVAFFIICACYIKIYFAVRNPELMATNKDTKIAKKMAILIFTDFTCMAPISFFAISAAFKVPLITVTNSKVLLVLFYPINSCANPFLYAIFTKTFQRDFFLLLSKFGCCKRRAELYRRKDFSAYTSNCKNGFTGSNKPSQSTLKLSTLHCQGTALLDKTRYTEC
Description: Results are reported as raw RLU values and represent the
mean ± SEM of 2 technical replicates.

CCKAR = CCKAR (Homo sapiens, UniProt P32238); experiment: PRESTO-Tango β-arrestin recruitment, CCKAR; format: cell-based; conditions: 10 µM compound; basal level of detection 3-fold RLU
Sequence of CCKAR (P32238 whole entry): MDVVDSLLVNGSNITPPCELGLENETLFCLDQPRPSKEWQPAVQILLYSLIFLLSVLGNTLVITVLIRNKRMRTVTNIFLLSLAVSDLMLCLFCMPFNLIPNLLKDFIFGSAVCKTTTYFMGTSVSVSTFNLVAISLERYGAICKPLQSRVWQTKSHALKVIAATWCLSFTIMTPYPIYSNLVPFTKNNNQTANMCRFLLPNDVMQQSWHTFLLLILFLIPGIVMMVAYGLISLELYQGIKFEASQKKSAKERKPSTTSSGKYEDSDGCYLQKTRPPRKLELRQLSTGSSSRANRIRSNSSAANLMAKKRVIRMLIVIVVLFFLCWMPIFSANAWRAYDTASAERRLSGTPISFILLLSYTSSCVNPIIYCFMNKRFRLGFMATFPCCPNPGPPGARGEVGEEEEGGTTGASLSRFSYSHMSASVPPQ

FPR1 = FPR1 (Homo sapiens, UniProt P21462); experiment: PRESTO-Tango β-arrestin recruitment, FPR1; format: cell-based; conditions: 10 µM compound; basal level of detection 3-fold RLU
Sequence of FPR1 (P21462 whole entry, the tested form may be a part): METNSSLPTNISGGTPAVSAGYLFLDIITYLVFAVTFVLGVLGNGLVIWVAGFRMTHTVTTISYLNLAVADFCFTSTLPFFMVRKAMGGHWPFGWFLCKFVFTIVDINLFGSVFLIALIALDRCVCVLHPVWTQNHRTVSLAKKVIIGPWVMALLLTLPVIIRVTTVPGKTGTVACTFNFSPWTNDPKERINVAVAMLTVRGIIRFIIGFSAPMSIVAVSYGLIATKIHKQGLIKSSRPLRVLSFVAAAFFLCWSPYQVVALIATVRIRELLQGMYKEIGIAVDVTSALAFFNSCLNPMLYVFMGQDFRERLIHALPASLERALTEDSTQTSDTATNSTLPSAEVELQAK

[1] = test system: chimera RXFP2-1 (extracellular domain of RXFP2, transmembrane domain of RXFP1); experiment: HTRF cAMP assay in HEK293T cells transiently transfected with chimera RXFP2-1; format: cell-based, human
Description: Fig. 2 6641 is an allosteric agonist of RXFP2. a HEK-RXFP2 cells co-treated with serial dilutions of INSL3 B dimer antagonist and 30 nM INSL3 or 0.28 µM 6641. HTRF cAMP dose-response inhibition curves were normalized to activity without antagonist co-treatment as 0% inhibition. b HTRF cAMP assay in HEK293T cells transiently transfected with WT or chimeric receptors. Chimera RXFP2-1 contains the extracellular domain of RXFP2 and the transmembrane domain of RXFP1, while chimera RXFP1-2 contains the extracellular domain of RXFP1 and the transmembrane domain of RXFP2. For each receptor, cAMP response induced by INSL3 and 6641 was normalized to FSK (2 µM) as 100% efficacy and DMSO vehicle as 0% efficacy. Emax and EC50 were calculated using four parameter nonlinear fit dose-response curves. Results are expressed as mean ± SEM of 3 independent experiments. Diagrams of the chimeric receptors were produced using GPCRdb.org[58], [59].
Complementary RXFP2-1 and RXFP1-2 chimeric receptors were used to further investigate the involvement of the RXFP2 extracellular and transmembrane domains on 6641 activity. RXFP2-1 has the extracellular domain of RXFP2 and transmembrane domain of RXFP1, and RXFP1-2 is its complement.
The HTRF Gs dynamic cAMP assay kit (CisBio, Bedford, MA) was used to measure intracellular cAMP accumulation in HEK293T cells (ATCC, Manassas, VA)[56]. […] The cell stock was verified mycoplasma free and authenticated by ATCC. Transient transfection was accomplished by treating cells in a 6-well plate with a mixture of 2 μg plasmid and 6 μL Lipofectamine 2000 (Invitrogen, Waltham, MA) per manufacturer’s protocol and incubating overnight. For cAMP measurement in 96-well format, HEK293T cells stably transfected with human RXFP2 (HEK-RXFP2), human RXFP1 (HEK-RXFP1), mouse Rxfp1 (HEK-Rxfp1) or transiently transfected with human RXFP1-RXFP2 chimeric receptors were seeded between 7500 and 30,000 cells per well, depending on cell line responsiveness, in serum-free DMEM medium and incubated overnight at 37 °C, 5% CO2. After 18 h, cells were treated with a titration of compound, 2 μM forskolin, or DMSO vehicle. Control wells were also treated with a titration of INSL3 (Phoenix Pharmaceuticals, Burlingame, CA) or human recombinant relaxin 2 (Peprotech, Cranbury, NJ). For the RXFP2 antagonist experiment, cells were co-treated with 0.28 μM compound or 30 nM INSL3 and a titration of the INSL3 B dimer antagonist[38],[39]. For the INSL3 allosteric modulation experiment, cells were co-treated with 0.025, 0.0025, or 0.00025 μM of compound and a titration of INSL3. […] Plates were incubated for 1 h at room temperature and the signal was read on a CLARIOstar plate reader (BMG Labtech, Ortenberg, Germany) at 665 and 620 nm emission wavelengths.

[2] = test system: female gubernaculum (mouse RXFP2 receptor in vivo); experiment: Gubernaculum development in female embryos of treated pregnant mice (histology); conditions: 30 mg/kg IP to pregnant females, E12.5 to E17.5
Description: The INSL3 surge that drives gubernaculum development during the transabdominal stage of testicular descent in male mice occurs between embryonic day E14.5 and 17.5[5],[6],[41]. In females, there is no detectable INSL3 expression and therefore the gubernaculum remains underdeveloped as a vestigial structure. […] Therefore, we hypothesized that the small molecule agonists of RXFP2 would show similar effects in female mice. Compound activity was tested by injecting pregnant females with the RXFP2 agonists starting from day E12.5 to E17.5 of embryonic development followed by histological evaluation of the gubernaculum in developing female embryos. […] At E18.5 the processus vaginalis or outpouching of the peritoneum occurs in males at the site of gubernacular caudal connection[43] (Fig. 3a). […] No differences were detected in the position of the ovaries in compound-treated female embryos and controls.
Fig. 3 RXFP2 agonists are biologically active and selective in vivo. a Diagram of the treatment protocol and representative histological section of the developed male gubernaculum at embryonic day 18.5 (upper left). b Representative histological sections showing a male-like invagination of the female gubernaculum in all compound-treated embryos (blue arrows). Four female embryos were analyzed per group. Scale bar = 100 µm. […]

trabecular bone of femur = experiment: Micro-CT of trabecular bone in femur after 8-week oral treatment; format: in vivo, mouse; design: Mat.D / Tb.N / Tb.Th / Tb.Sp / Conn.D: unit not given here
[3] = 10 mg/kg PO 3 times per week, 8 weeks
[4] = femur trabecular bone, 8-week oral treatment, individual mice

With O=C1Nc2ccc(-c3cc(C(F)(F)F)cc(C(F)(F)F)c3)cc2C(=O)N2CCN(C(=O)COc3ccc(OC(F)(F)F)cc3I)C[C@@H]12 [compound 6641] the “cAMP response through LHCGR” value (human LHCGR; Hit Hunter cAMP assay) was “did not result in an increase of cAMP level”, the RLU (human LHCGR; Log [M] -4.70) was 1280 RLU and 1080 RLU and the RLU (human LHCGR; Log [M] -5.18) was 1000 RLU. The RLU (human LHCGR; Log [M] -5.65) was 1080 RLU and 1000 RLU, the RLU (human LHCGR; Log [M] -6.13) was 1080 RLU and the RLU (human LHCGR; Log [M] -6.61) was 1040 RLU. For the same molecule, the RLU (human LHCGR; Log [M] -7.08) was 1200 RLU and 920 RLU, the RLU (human LHCGR; Log [M] -7.56) was 1000 RLU and the RLU (human LHCGR; Log [M] -8.04) was 960 RLU and 680 RLU. The RLU (human LHCGR; Log [M] -8.52) was 1040 RLU, the RLU (human LHCGR; Log [M] -8.99) was 960 RLU and 1040 RLU and the “β-arrestin recruitment, CCKAR (mean ± SEM)” value (CCKAR) was 3.42 ± 0.15 fold RLU. For the same molecule, the “β-arrestin recruitment, FPR1 (mean ± SEM)” value (FPR1) was 3.11 ± 0.29 fold RLU, the “EC50 (1)-(3)” value ([1]; 6641, individual experiments) was “Inactive” and the “EC50 (AVERAGE)” value ([1]; 6641, mean of 3) was “Inactive”. The “Emax (1)-(3)” value ([1]; individual experiments, FSK (2 µM) = 100% efficacy) was “Inactive”, the “Emax (AVERAGE)” value ([1]; mean (± SEM) of 3, FSK (2 µM) = 100% efficacy) was “Inactive; also recorded: did not stimulate cAMP production” and the “gubernaculum phenotype of female embryos at E18.5” value [2] was “male-like invagination of the gubernaculum”. The “femur trabecular parameters (micro-CT)” value (trabecular bone of femur; [3]) was “no changes”, the “BV/TV (%)” value (trabecular bone of femur; [4]) was 4.31% and 3.06% and 3.16% and 4.83% and 2.23% and 3.75% and 3.15% and 4.04% and 1.79% and 1.82% and 3.85% and 4.53% and 2.18% and 3.86% and 3.36% and the Conn.D (trabecular bone of femur; [4]) was 30.1255 and 5.8494 and 15.74 and 19.1725 and 7.6938 and 27.3442 and 18.8338 and 25.1693 and 0 and -0.6363 and 15.6001 and 25.2137 and 3.3792 and 27.5856 and 14.5139. The Mat.D (trabecular bone of femur; [4]) was 834.454 and 848.06 and 875.94 and 870.004 and 796.836 and 823.449 and 732.807 and 765.822 and 734.474 and 726.404 and 778.428 and 781.83 and 731.073 and 806.374 and 872.538, the Tb.N (trabecular bone of femur; [4]) was 3.0955 and 3.1972 and 2.9789 and 2.9022 and 2.8329 and 3.2718 and 2.9757 and 3.3227 and 2.8446 and 3.0319 and 3.0922 and 3.1695 and 2.9848 and 3.092 and 2.9537 and the Tb.Sp (trabecular bone of femur; [4]) was 0.3236 and 0.3094 and 0.3391 and 0.3456 and 0.3545 and 0.3064 and 0.3348 and 0.3029 and 0.3454 and 0.3314 and 0.3266 and 0.317 and 0.3334 and 0.3226 and 0.3354. The Tb.Th (trabecular bone of femur; [4]) was 0.0422 and 0.0404 and 0.0416 and 0.0484 and 0.033 and 0.037 and 0.035 and 0.0363 and 0.0299 and 0.0308 and 0.0384 and 0.0447 and 0.0326 and 0.0382 and 0.0437, the “body or organ (liver, kidney) weight vs vehicle” value [3] was “No changes” and the “histological analysis of livers and kidneys” value [3] was “did not show any changes in cell morphology”. The “Left Kidney weight” value (Left Kidney, after 8-week oral treatment, individual mice) was 0.4912 and 0.4654 and 0.4705 and 0.5626 and 0.5314 and 0.5304 and 0.5976 and 0.5317 and 0.5347 and 0.5015 and 0.5707 and 0.5055 and 0.4688 and 0.4947 and 0.545, the Liver weight (Liver, after 8-week oral treatment, individual mice) was 4.014 and 3.487 and 3.8235 and 3.754 and 3.582 and 3.355 and 4.71 and 3.617 and 3.875 and 3.519 and 3.904 and 3.698 and 3.86 and 3.544 and 3.928 and the “Right Kidney weight” value (Right Kidney, after 8-week oral treatment, individual mice) was 0.5699 and 0.5019 and 0.5734 (2×) and 0.5889 and 0.5665 and 0.5265 and 0.5931 and 0.5579 and 0.5793 and 0.6089 and 0.5717 and 0.4908 and 0.5191 and 0.5352. For the same molecule, the “Body weight” value (day 18, individual mice) was 19.85 g and 17.73 g and 17.98 g and 16.95 g and 18.38 g and 18.83 g and 21.28 g and 19.38 g and 20.27 g and 20.03 g and 16.32 g and 20.68 g and 19.45 g and 18.87 g and 17.54 g, the “Body weight” value (day 21, individual mice) was 19.93 g and 18.04 g and 17.94 g and 17.08 g and 17.98 g and 19.29 g and 21.67 g and 19.33 g and 20.02 g and 19.71 g and 16.43 g and 21.48 g and 19.84 g and 19.3 g and 18.07 g and the “Body weight” value (day 25, individual mice) was 20.1 g and 18.01 g and 17.55 g and 16.7 g and 18.33 g and 19.06 g and 21.44 g and 20.16 g and 20.44 g and 20.28 g and 16.93 g and 21.61 g and 19.73 g and 19.34 g and 18.63 g. For the same molecule, the “Body weight” value (day 28, individual mice) was 19.97 g and 17.83 g and 17.52 g and 17.01 g and 18.4 g and 18.9 g and 22.31 g and 19.96 g and 21.2 g and 20.35 g and 17.55 g and 21.63 g and 20.55 g and 19.62 g and 18.84 g, the “Body weight” value (day 32, individual mice) was 20.73 g and 18.54 g and 18.23 g and 16.58 g and 19.25 g and 19.78 g and 22.35 g and 20.74 g (2×) and 21.45 g and 17.18 g and 20.72 g and 20.18 g and 19.42 g and 18.61 g and the “Body weight” value (day 35, individual mice) was 20.28 g and 18.14 g and 18.03 g and 17.15 g and 19.17 g and 19.71 g and 22.83 g and 20.57 g and 20.92 g and 19.8 g and 17.11 g and 22.36 g and 20.66 g and 20.25 g and 18.8 g. The “Body weight” value (day 39, individual mice) was 20.17 g and 18.1 g and 17.93 g and 17.63 g and 19.64 g and 20.24 g and 22.43 g and 20.72 g and 21.92 g and 20.95 g.
